Assay results: ChEMBL document CHEMBL1201861, “Genomics of Drug Sensitity in Cancer screening data, Wellcome Trust Sanger Institute”

Assays:
Type in all cases: functional, cell-based
[1] = tested on: DG-75; assay: cells; details: Homo sapiens;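 note: growth inhibition of DG-75 cells, read out with a cell viability assay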
Description: SANGER: Inhibition of human DG-75 cell growth in a cell viability assay.

[2] = tested on: DoTc2-4510; assay: cells; details: Homo sapiens
[3] = tested on: EFO-21; assay: cells; details: Homo sapiens;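 note: growth inhibition of EFO-21 cells measured with a viability assay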
Description: SANGER: Inhibition of human EFO-21 cell growth in a cell viability assay.

[4] = tested on: EFO-27; assay: cells; details: Homo sapiens;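 note: growth inhibition of EFO-27 cells, read out with a cell viability assay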
Description: SANGER: Inhibition of human EFO-27 cell growth in a cell viability assay.

[5] = tested on: G-361; assay: cells; details: Homo sapiens
[6] = tested on: HCC70; assay: cells; details: Homo sapiens;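 note: cell viability assay measuring how strongly the compound suppresses proliferation of HCC70 cells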
Description: SANGER: Inhibition of human HCC70 cell growth in a cell viability assay.

[7] = tested on: HCT-15; assay: cells; details: Homo sapiens;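 note: cell viability readout, IC50 reflecting suppression of HCT-15 cell growth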
Description: SANGER: Inhibition of human HCT-15 cell growth in a cell viability assay.

[8] = tested on: HLE; assay: cells; details: Homo sapiens;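 note: growth inhibition of human HLE cells, read out by a cell viability assay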
Description: SANGER: Inhibition of human HLE cell growth in a cell viability assay.

[9] = tested on: HMV-2 cell line; assay: cells; details: Homo sapiens;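 note: growth inhibition of HMV-II cells, read out with a cell viability assay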
Description: SANGER: Inhibition of human HMV-II cell growth in a cell viability assay.

[10] = tested on: HSC-4; assay: cells; details: Homo sapiens;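 note: growth inhibition of human HSC-4 cells, read out with a cell viability assay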
Description: SANGER: Inhibition of human HSC-4 cell growth in a cell viability assay.

[11] = tested on: HuO-3N1; assay: cells; details: Homo sapiens;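 note: cell viability readout used to measure how strongly compounds suppress proliferation of human HuO-3N1 cells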
Description: SANGER: Inhibition of human HuO-3N1 cell growth in a cell viability assay.

[12] = tested on: KYSE-150 cell line; assay: cells; details: Homo sapiens;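 note: growth inhibition of human KYSE-150 cells, read out with a cell viability assay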
Description: SANGER: Inhibition of human KYSE-150 cell growth in a cell viability assay.

[13] = tested on: KYSE-270; assay: cells; details: Homo sapiens;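 note: cell growth inhibition measured with a viability assay in the human KYSE-270 line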
Description: SANGER: Inhibition of human KYSE-270 cell growth in a cell viability assay.

[14] = tested on: KYSE-510; assay: cells; details: Homo sapiens;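 note: cell viability readout used to measure how strongly growth of the cell line is suppressed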
Description: SANGER: Inhibition of human KYSE-510 cell growth in a cell viability assay.

[15] = tested on: LC-1F; assay: cells; details: Homo sapiens;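 note: growth inhibition of human LC-1F cells, read out with a cell viability assay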
Description: SANGER: Inhibition of human LC-1F cell growth in a cell viability assay.

[16] = tested on: LOUCY; assay: cells; details: Homo sapiens;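 note: growth inhibition of human LOUCY cells, read out with a cell viability assay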
Description: SANGER: Inhibition of human LOUCY cell growth in a cell viability assay.

[17] = tested on: MDA-MB-453; assay: cells; details: Homo sapiens
Description: SANGER: Inhibition of human MDA-MB-453 cell growth in a cell viability assay.

[18] = tested on: MFE-280; assay: cells; details: Homo sapiens;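 note: growth inhibition of MFE-280 cells, determined with a cell viability readout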
Description: SANGER: Inhibition of human MFE-280 cell growth in a cell viability assay.

[19] = tested on: MG-63; assay: cells; details: Homo sapiens;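 note: growth inhibition of human MG-63 cells, read out with a cell viability assay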
Description: SANGER: Inhibition of human MG-63 cell growth in a cell viability assay.

[20] = tested on: MHH-CALL-2; assay: cells; details: Homo sapiens;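 note: growth inhibition of the cell line, read out in a cell viability assay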
Description: SANGER: Inhibition of human MHH-CALL-2 cell growth in a cell viability assay.

[21] = tested on: NCCIT; assay: SANGER: Inhibition of human NCCIT cell growth in a cell viability assay.
[22] = tested on: NCI-H1623; assay: cells; details: Homo sapiens;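 note: cell viability assay used as the read-out for growth inhibition of NCI-H1623 cells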
Description: SANGER: Inhibition of human NCI-H1623 cell growth in a cell viability assay.

[23] = tested on: NCI-H1651; assay: cells; details: Homo sapiens;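 note: Read-out is a cell viability assay, with IC50 expressing inhibition of NCI-H1651 cell growth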
Description: SANGER: Inhibition of human NCI-H1651 cell growth in a cell viability assay.

[24] = tested on: NCI-H1693; assay: cells; details: Homo sapiens;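 note: growth inhibition of the human cell line, read out with a cell viability assay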
Description: SANGER: Inhibition of human NCI-H1693 cell growth in a cell viability assay.

[25] = tested on: NCI-H1703; assay: cells; details: Homo sapiens;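 note: growth inhibition of NCI-H1703 cells, read out via a cell viability assay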
Description: SANGER: Inhibition of human NCI-H1703 cell growth in a cell viability assay.

[26] = tested on: NCI-H2052; assay: cells; details: Homo sapiens;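 note: growth inhibition of NCI-H2052 cells, read out with a cell viability assay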
Description: SANGER: Inhibition of human NCI-H2052 cell growth in a cell viability assay.

[27] = tested on: NCI-H2122; assay: cells; details: Homo sapiens;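 note: growth inhibition of the cells, read out with a cell viability assay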
Description: SANGER: Inhibition of human NCI-H2122 cell growth in a cell viability assay.

[28] = tested on: NCI-H2170; assay: cells; details: Homo sapiens;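 note: cell viability assay measuring growth inhibition of human NCI-H2170 cancer cells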
Description: SANGER: Inhibition of human NCI-H2170 cell growth in a cell viability assay.

[29] = tested on: NCI-H2452; assay: cells; details: Homo sapiens;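 note: growth inhibition of NCI-H2452 cells, read out with a cell viability assay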
Description: SANGER: Inhibition of human NCI-H2452 cell growth in a cell viability assay.

[30] = tested on: NCI-H292; assay: cells; details: Homo sapiens;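 note: growth inhibition of NCI-H292 cells, read out with a cell viability assay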
Description: SANGER: Inhibition of human NCI-H292 cell growth in a cell viability assay.

[31] = tested on: SNU-16; assay: cells; details: Homo sapiens;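 note: growth inhibition of human SNU-16 cells, determined with a cell viability readout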
Description: SANGER: Inhibition of human NCI-SNU-16 cell growth in a cell viability assay.

[32] = tested on: NUGC-3; assay: cells; details: Homo sapiens;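 note: growth inhibition of human NUGC-3 cells, read out with a cell viability assay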
Description: SANGER: Inhibition of human NUGC-3 cell growth in a cell viability assay.

[33] = tested on: OAW-28; assay: cells; details: Homo sapiens;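 note: growth inhibition of OAW-28 cells, read out with a cell viability assay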
Description: SANGER: Inhibition of human OAW-28 cell growth in a cell viability assay.

[34] = tested on: PFSK-1; assay: cells; details: Homo sapiens;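 note: cell viability assay measuring how strongly compounds suppress growth of human PFSK-1 cells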
Description: SANGER: Inhibition of human PFSK-1 cell growth in a cell viability assay.

[35] = tested on: RCM-1; assay: cells; details: Homo sapiens;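 note: growth inhibition of the RCM-1 line, determined with a cell viability readout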
Description: SANGER: Inhibition of human RCM-1 cell growth in a cell viability assay.

[36] = tested on: REH; assay: cells; details: Homo sapiens;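 note: growth inhibition of REH cells determined with a cell viability read-out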
Description: SANGER: Inhibition of human REH cell growth in a cell viability assay.

[37] = tested on: RPMI 8402; assay: SANGER: Inhibition of human RPMI-8402 cell growth in a cell viability assay.
[38] = tested on: Raji; assay: cells; details: Homo sapiens;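 note: cell viability assay measuring inhibition of Raji cell growth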
Description: SANGER: Inhibition of human Raji cell growth in a cell viability assay.

[39] = tested on: SCC-3; assay: cells; details: Homo sapiens;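 note: cell viability assay measuring inhibition of SCC-3 cell growth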
Description: SANGER: Inhibition of human SCC-3 cell growth in a cell viability assay.

[40] = tested on: SCC-9; assay: cells; details: Homo sapiens;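 note: Read-out is a cell viability assay, with values giving inhibition of cell growth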
Description: SANGER: Inhibition of human SCC-9 cell growth in a cell viability assay.

[41] = tested on: SF-295; assay: cells; details: Homo sapiens;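 note: growth inhibition of SF-295 cells, read out with a cell viability assay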
Description: SANGER: Inhibition of human SF295 cell growth in a cell viability assay.

[42] = tested on: SKG-IIIa; assay: cells; details: Homo sapiens;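 note: cell growth inhibition, read out with a cell viability assay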
Description: SANGER: Inhibition of human SKG-IIIa cell growth in a cell viability assay.

[43] = tested on: SNU-449; assay: cells; details: Homo sapiens
Description: SANGER: Inhibition of human SNU-449 cell growth in a cell viability assay.

[44] = tested on: SW13; assay: cells; details: Homo sapiens;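 note: IC50 is inhibition of SW13 cell growth, read out with a cell viability assay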
Description: SANGER: Inhibition of human SW13 cell growth in a cell viability assay.

[45] = tested on: SW48; assay: cells; details: Homo sapiens;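 note: growth inhibition of SW48 cells, read out with a cell viability assay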
Description: SANGER: Inhibition of human SW48 cell growth in a cell viability assay.

[46] = tested on: SW756; assay: cells; details: Homo sapiens;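 note: growth inhibition of human SW756 cells, read out with a cell viability assay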
Description: SANGER: Inhibition of human SW756 cell growth in a cell viability assay.

[47] = tested on: SW837; assay: cells; details: Homo sapiens;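 note: growth inhibition of SW837 cells, determined with a cell viability assay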
Description: SANGER: Inhibition of human SW837 cell growth in a cell viability assay.

[48] = tested on: T98G; assay: cells; details: Homo sapiens;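 note: growth inhibition of T98G cells, read out by a cell viability assay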
Description: SANGER: Inhibition of human T98G cell growth in a cell viability assay.

[49] = tested on: A253 cell line; assay: cells; details: Homo sapiens;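 note: growth inhibition of A253 cells, read out with a cell viability assay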
Description: SANGER: Inhibition of human A253 cell growth in a cell viability assay.

[50] = tested on: A673; assay: cells; details: Homo sapiens;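 note: growth inhibition of human A673 cells, read out through a cell viability assay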
Description: SANGER: Inhibition of human A673 cell growth in a cell viability assay.

[51] = tested on: BHT-101; assay: cells; details: Homo sapiens
Description: SANGER: Inhibition of human BHT-101 cell growth in a cell viability assay.

[52] = tested on: BT-20; assay: cells; details: Homo sapiens;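 note: cell viability assay measuring suppression of growth in human BT-20 cells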
Description: SANGER: Inhibition of human BT-20 cell growth in a cell viability assay.

[53] = tested on: BXPC-3; assay: cells; details: Homo sapiens;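 note: growth inhibition of human BxPC-3 cells, read out by a cell viability assay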
Description: SANGER: Inhibition of human BxPC-3 cell growth in a cell viability assay.

[54] = tested on: CAL-120; assay: cells; details: Homo sapiens;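 note: cell growth inhibition, read out as cell viability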
Description: SANGER: Inhibition of human CAL-120 cell growth in a cell viability assay.

[55] = tested on: CAL-39; assay: cells; details: Homo sapiens;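 note: cell viability assay measuring growth inhibition of CAL-39 cells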
Description: SANGER: Inhibition of human CAL-39 cell growth in a cell viability assay.

[56] = tested on: CAL-72; assay: cells; details: Homo sapiens;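 note: cell viability assay measuring inhibition of proliferation in the CAL-72 cell line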
Description: SANGER: Inhibition of human CAL-72 cell growth in a cell viability assay.

[57] = tested on: TE-15; assay: cells; details: Homo sapiens
Description: SANGER: Inhibition of human TE-15 cell growth in a cell viability assay.

[58] = tested on: TUR; assay: cells; details: Homo sapiens
Description: SANGER: Inhibition of human TUR cell growth in a cell viability assay.

[59] = tested on: U-118-MG; assay: cells; details: Homo sapiens
Description: SANGER: Inhibition of human U-118-MG cell growth in a cell viability assay.

[60] = tested on: U-698-M; assay: cells; details: Homo sapiens
Description: SANGER: Inhibition of human U-698-M cell growth in a cell viability assay.

[61] = tested on: WM-115; assay: cells; details: Homo sapiens
Description: SANGER: Inhibition of human WM-115 cell growth in a cell viability assay.

[62] = tested on: CAPAN-1; assay: cells; details: Homo sapiens
Description: SANGER: Inhibition of human CAPAN-1 cell growth in a cell viability assay.

## CCNC(=O)c1noc(-c2cc(C(C)C)c(O)cc2O)c1-c1ccc(CN2CCOCC2)cc1 [LUMINESPIB]
[1]
  IC50: > 256 nM
[2]
  IC50: 21.2 nM
[3]
  IC50: 89.9 nM
[4]
  IC50: 10.2 nM
[5]
  IC50: 26.8 nM
[6]
  IC50: 54.5 nM
[7]
  IC50: 66 nM
[8]
  IC50: 60.8 nM
[9]
  IC50: 4.49 nM
[10]
  IC50: 172 nM
[11]
  IC50: > 256 nM
[12]
  IC50: 36.1 nM
[13]
  IC50: 10.6 nM
[14]
  IC50: 14.4 nM
[15]
  IC50: > 256 nM
[16]
  IC50: 5.05 nM
[17]
  IC50: > 256 nM
[18]
  IC50: > 256 nM
[19]
  IC50: 18.7 nM
[20]
  IC50: > 256 nM
[21]
  IC50: 66 nM
[22]
  IC50: > 256 nM
[23]
  IC50: 24.3 nM
[24]
  IC50: 36.2 nM
[25]
  IC50: 61.8 nM
[26]
  IC50: 104 nM
[27]
  IC50: 13.8 nM
[28]
  IC50: 163 nM
[29]
  IC50: > 256 nM
[30]
  IC50: 17.1 nM
[31]
  IC50: > 256 nM
[32]
  IC50: 48.3 nM
[33]
  IC50: > 256 nM
[34]
  IC50: 103 nM
[35]
  IC50: 157 nM
[36]
  IC50: 20.6 nM
[37]
  IC50: > 256 nM
[38]
  IC50: > 256 nM
[39]
  IC50: > 256 nM
[40]
  IC50: 58.7 nM
[41]
  IC50: 17.2 nM
[42]
  IC50: 178 nM
[43]
  IC50: 20.3 nM
[44]
  IC50: 45.9 nM
[45]
  IC50: 40.3 nM
[46]
  IC50: 41.6 nM
[47]
  IC50: 30.1 nM
[48]
  IC50: 74.2 nM
[49]
  IC50: 50.5 nM
[50]
  IC50: 104 nM
[51]
  IC50: 58.8 nM
[52]
  IC50: > 256 nM
[53]
  IC50: 43.4 nM
[54]
  IC50: 42.4 nM
[55]
  IC50: 14.2 nM
[56]
  IC50: 166 nM
[57]
  IC50: 13.4 nM
[58]
  IC50: 77.3 nM
[59]
  IC50: 25.8 nM
[60]
  IC50: 73.8 nM
[61]
  IC50: > 256 nM
[62]
  IC50: 71.4 nM

## CO[C@@]12[C@H](COC(N)=O)C3=C(C(=O)C(C)=C(N)C3=O)N1C[C@@H]1N[C@@H]12 [MITOMYCIN]
[1]
  IC50: 6250 nM
[2]
  IC50: 180 nM
[3]
  IC50: 591 nM
[4]
  IC50: 1130 nM
[5]
  IC50: 124 nM
[6]
  IC50: 694 nM
[7]
  IC50: 465 nM
[8]
  IC50: 498 nM
[9]
  IC50: 166 nM
[10]
  IC50: 434 nM
[11]
  IC50: 6450 nM
[12]
  IC50: 34.1 nM
[13]
  IC50: 103 nM
[14]
  IC50: < 62.5 nM
[15]
  IC50: 862 nM
[16]
  IC50: 26.2 nM
[17]
  IC50: 1080 nM
[18]
  IC50: 8350 nM
[19]
  IC50: 226 nM
[20]
  IC50: < 62.5 nM
[21]
  IC50: 1010 nM
[22]
  IC50: 1010 nM
[23]
  IC50: < 62.5 nM
[24]
  IC50: 900 nM
[25]
  IC50: 277 nM
[26]
  IC50: 1990 nM
[27]
  IC50: < 62.5 nM
[28]
  IC50: < 62.5 nM
[29]
  IC50: 8940 nM
[30]
  IC50: 884 nM
[31]
  IC50: 6740 nM
[32]
  IC50: 16.9 nM
[33]
  IC50: 441 nM
[34]
  IC50: 5880 nM
[35]
  IC50: 847 nM
[36]
  IC50: < 62.5 nM
[37]
  IC50: 17.1 nM
[38]
  IC50: 1220 nM
[39]
  IC50: < 62.5 nM
[40]
  IC50: 3790 nM
[41]
  IC50: < 62.5 nM
[42]
  IC50: 377 nM
[43]
  IC50: 3360 nM
[44]
  IC50: 642 nM
[45]
  IC50: 193 nM
[46]
  IC50: 597 nM
[47]
  IC50: 276 nM
[48]
  IC50: 524 nM
[49]
  IC50: 346 nM
[50]
  IC50: 790 nM
[51]
  IC50: 1740 nM
[52]
  IC50: 312 nM
[53]
  IC50: 775 nM
[54]
  IC50: 5960 nM
[55]
  IC50: 46.5 nM
[56]
  IC50: > 16000 nM
[57]
  IC50: 73.7 nM
[58]
  IC50: 190 nM
[59]
  IC50: 3140 nM
[60]
  IC50: 1600 nM
[61]
  IC50: > 16000 nM
[62]
  IC50: 116 nM
